# Assays:
# [1] = system: human peripheral blood mononuclear cells (responder and irradiated stimulator cells); experiment: Mixed lymphocyte reaction (MLR), ^3HT incorporation; type: cell-based; settings: Table 19, R × S, R6-5-D6 8 ng/ml, Dex 50 ng/ml
# [2] = system: JY cells (LFA-1 dependent aggregation); experiment: Qualitative aggregation assay (microtiter plate), PMA-induced JY cell aggregation; type: cell-based, human
# Description: In order to assess the extent of cellular adhesion, aggregation assays were employed. Cell lines used in such assays were washed two times with RPMI 1640 medium containing 5 mM Hepes buffer (Sigma Chemical Co., St. Louis) and resuspended to a concentration of 2×10^6 cells/ml. Added to flat-bottomed, 96-well microtiter plates (No. 3596; Costar, Cambridge, Mass.) were 50 μl of appropriate monoclonal antibody supernatant or 50 μl of complete medium with or without purified monoclonal antibodies, 50 μl of complete medium containing 200 ng/ml of the phorbol ester phorbol myristate acetate (PMA) and 100 μl of cells at a concentration of 2×10^6 cells/ml in complete medium. This yielded a final concentration of 50 ng/ml PMA and 2×10^5 cells/well. Cells were allowed to settle spontaneously, and the degree of aggregation was scored at various time points. […] In order to obtain a more quantitative estimate of cellular adhesion, reagents and cells were added to 5 ml polystyrene tubes in the same order as above. Tubes were placed in a rack on a gyratory shaker at 37° C. After 1 hour at approximately 200 rpm, 10 μl of the cell suspension was placed in a hemocytometer and the number of free cells was quantitated. Percent aggregation was determined by the following equation: […]
# The qualitative aggregation assay described in Example 2 was performed using the Epstein-Barr transformed cell line JY. […]
# ICAM-1-LFA-1 adhesion = ICAM-1-LFA-1 adhesion (Homo sapiens, UniProt P05107+P05362+P20701); settings: peptides; cited from earlier work
# HRV14 = experiment: Binding of [^35S]-Met labeled HRV14 to COS cells expressing ICAM-1 mutants; type: cell-based, human rhinovirus 14
# LFA-1 on SKW-3 cells = target: T1, LFA-1 on SKW-3 cells (Homo sapiens, UniProt P05107+P20701); experiment: SKW-3 cell binding to ICAM-1 bound to plastic (solid phase); type: cell-based; settings: purified protein bound to 96-well plates
# T1 construct: SKW-3 cells bearing LFA-1 on their surface; endogenous in cells; host or cells: SKW-3 T-lymphoma cells
# Excerpt: The truncated ICAM-1 secreted from transfected cells was purified by immunoaffinity chromatography with an ICAM-1 specific antibody (R6-5-D6) and tested for functional activity in a cell binding assay. […] These preparations of ICAM-1 were allowed to bind to the surfaces of plastic 96-well plates (Nunc), to produce ICAM-1 bound to a solid-phase. After washing out unbound material, approximately 75-80% and 83-88% of SKW-3 cells bearing LFA-1 on their surface bound specifically to the native and to the truncated forms of ICAM-1, respectively.
# LFA-1 = target: T2, LFA-1 (Homo sapiens, UniProt P05107+P20701); experiment: Adherence of COS cells expressing ICAM-1 or ICAM-1 mutants to plastic-bound purified LFA-1; type: cell-based
# T2 construct: endogenous in cells
# T2 sequence (P20701 26-1170): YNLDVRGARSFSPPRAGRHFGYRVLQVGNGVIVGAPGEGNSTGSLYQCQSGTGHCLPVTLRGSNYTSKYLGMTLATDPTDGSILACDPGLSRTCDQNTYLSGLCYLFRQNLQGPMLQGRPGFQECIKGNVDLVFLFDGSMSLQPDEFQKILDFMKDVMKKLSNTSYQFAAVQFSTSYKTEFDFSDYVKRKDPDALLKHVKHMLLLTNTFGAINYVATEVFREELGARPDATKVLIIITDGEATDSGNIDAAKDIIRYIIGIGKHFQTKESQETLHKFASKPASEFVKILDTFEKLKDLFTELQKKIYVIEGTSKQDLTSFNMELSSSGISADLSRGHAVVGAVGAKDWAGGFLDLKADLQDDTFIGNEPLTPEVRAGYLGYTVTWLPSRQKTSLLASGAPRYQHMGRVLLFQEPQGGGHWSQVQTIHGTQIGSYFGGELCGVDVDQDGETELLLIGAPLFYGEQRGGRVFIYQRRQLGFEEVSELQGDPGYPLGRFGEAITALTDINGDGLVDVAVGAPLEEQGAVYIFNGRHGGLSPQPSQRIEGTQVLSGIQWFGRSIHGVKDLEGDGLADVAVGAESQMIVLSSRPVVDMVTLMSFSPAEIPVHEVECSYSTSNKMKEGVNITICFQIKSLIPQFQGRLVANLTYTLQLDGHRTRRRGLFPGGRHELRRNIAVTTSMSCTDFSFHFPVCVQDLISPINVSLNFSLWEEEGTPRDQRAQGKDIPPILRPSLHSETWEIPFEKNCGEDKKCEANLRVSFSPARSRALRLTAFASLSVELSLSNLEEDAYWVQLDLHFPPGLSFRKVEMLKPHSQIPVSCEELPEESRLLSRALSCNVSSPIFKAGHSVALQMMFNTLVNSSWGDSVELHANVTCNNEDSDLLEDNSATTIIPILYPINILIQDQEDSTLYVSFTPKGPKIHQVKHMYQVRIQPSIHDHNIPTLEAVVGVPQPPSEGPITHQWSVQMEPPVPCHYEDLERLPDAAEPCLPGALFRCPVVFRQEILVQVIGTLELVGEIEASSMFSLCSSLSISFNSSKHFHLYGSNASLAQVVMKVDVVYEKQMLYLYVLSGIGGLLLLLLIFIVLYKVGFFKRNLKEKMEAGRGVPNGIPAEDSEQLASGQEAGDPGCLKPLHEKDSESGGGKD
# T2 sequence (P05107 23-769): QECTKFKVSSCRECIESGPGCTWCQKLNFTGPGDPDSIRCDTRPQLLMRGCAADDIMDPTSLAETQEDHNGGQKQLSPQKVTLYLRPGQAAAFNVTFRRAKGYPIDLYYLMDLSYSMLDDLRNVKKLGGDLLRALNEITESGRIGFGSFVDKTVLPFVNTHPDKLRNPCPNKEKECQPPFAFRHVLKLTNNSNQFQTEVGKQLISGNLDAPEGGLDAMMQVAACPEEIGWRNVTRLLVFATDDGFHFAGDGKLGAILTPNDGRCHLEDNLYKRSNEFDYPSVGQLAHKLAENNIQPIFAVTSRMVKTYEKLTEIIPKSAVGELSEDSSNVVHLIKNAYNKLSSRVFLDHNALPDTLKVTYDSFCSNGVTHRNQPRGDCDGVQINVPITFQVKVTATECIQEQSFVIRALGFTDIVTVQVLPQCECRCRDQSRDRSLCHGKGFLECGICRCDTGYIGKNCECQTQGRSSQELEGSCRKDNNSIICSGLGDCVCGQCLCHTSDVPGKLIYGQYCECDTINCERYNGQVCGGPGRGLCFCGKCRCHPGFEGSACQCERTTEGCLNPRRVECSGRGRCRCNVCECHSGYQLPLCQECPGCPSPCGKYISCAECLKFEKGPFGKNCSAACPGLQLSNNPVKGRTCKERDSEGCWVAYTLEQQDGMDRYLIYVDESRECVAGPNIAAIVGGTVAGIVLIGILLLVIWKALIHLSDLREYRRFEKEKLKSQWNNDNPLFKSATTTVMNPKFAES
# Sequence of ICAM-1-LFA-1 adhesion (P20701 26-1170, one chain of several): as the sequence (P20701 26-1170) above
# Sequence of ICAM-1-LFA-1 adhesion (P05107 23-769, one chain of several): as the sequence (P05107 23-769) above
# T1 sequence (P20701 26-1170): as the sequence (P20701 26-1170) above
# T1 sequence (P05107 23-769): as the sequence (P05107 23-769) above
molecule,measurement,setting,value
"C[C@@H]1C[C@H]2[C@@H]3CCC4=CC(=O)C=C[C@]4(C)[C@@]3(F)[C@@H](O)C[C@]2(C)[C@@]1(O)C(=O)CO [Dex, Dexamethasone]",inhibition at 0.05 µg/mL,"[1]; Homo sapiens, PBMC",59%
same,^3HT Incorporation (CPM),"[1]; no inhibitor 34,199","14,158 CPM"
[Mg] [magnesium],lowest concentration supporting PMA-induced JY cell aggregation,[2]; 1.25 mM calcium ions added to the medium,0.02 millimolar
same,lowest concentration supporting PMA-induced JY cell aggregation,[2]; medium free of calcium ions,0.3 mM
GRGDSP,inhibition of ICAM-1-LFA-1 adhesion,ICAM-1-LFA-1 adhesion,failure
GRGESP,inhibition of ICAM-1-LFA-1 adhesion,ICAM-1-LFA-1 adhesion,failure
"Native ICAM-1: native (wild-type) Intercellular Adhesion Molecule-1, purified or expressed in COS cells (protein, UniProt P05362 28-532, looked up) Intercellular adhesion …: QTSVSPSKVILPRGGSVLVTCSTSCDQPKLLGIETPLPKKELLLPGNNRKVYELSNVQEDSQPMCYSNCPDGQSTAKTFLTVYWTPERVELAPLPSWQPVGKNLTLRCQVEGGAPRANLTVVLLRGEKELKREPAVGEPAEVTTTVLVRRDHHGANFSCRTELDLRPQGLELFENTSAPYQLQTFVLPATPPQLVSPRVLEVDTQGTVVCSLDGLFPVSEAQVHLALGDQRLNPTVTYGNDSFSAKASVSVTAEDEGTQRLTCAVILGNQSQETLQTVTIYSFPAPNVILTKPEVSEGTEVTVKCEAHPRAKVTLNGVPAQPLGPRAQLLLKATPEDNGRSFSCSATLEVAGQLIHKNQTRELRVLYGPRLDERDCPGNWTWPENSQQTPMCQAWGNPLPELKCLKDGTFPLPIGESVTVTRDLEGTYLCRARSTQGEVTRKVTVNVLSPRYEIVIITVVAAAVIMGTAGLSTYLYNRQRKIKKYRLQQAQKGTPMKPNTQATPP","Percent of [^35S] methionine-labeled HRV-14 which bound to COS cells, mean",HRV14,21%
same,"Percent of [^35S] methionine-labeled HRV-14 which bound to COS cells, range over experiments",HRV14; mock-transfected 0-4%,6-43%
same,SKW-3 cells bound specifically to plastic-bound ICAM-1,LFA-1 on SKW-3 cells,75-80%
same,"Percent of ICAM-1 expressing COS cells that bound to LFA-1, mean",LFA-1,33%
same,"Percent of ICAM-1 expressing COS cells that bound to LFA-1, range over experiments",LFA-1; mock-transfected 0-1%,11-63%
same,% of Cells Expressing ICAM-1 that Bind LFA-1 in the Presence of RR1/1,"LFA-1; transfected Cos cells, purified LFA-1 on plastic",0%

# Source: US7354588B1, “Functional derivatives of ICAM-1 with altered ability to bind LFA-1 or HRV” (Dana Farber Cancer Institute, priority 1987, dated 2008)
